Data reported in patent US20150246093A1, “ORAL FORMULATIONS OF ANGIOTENSIN” (TARIX PHARMACEUTICALS LTD., priority 2012, published 2015).
“And” between values parts separate entries of the source, which are not always exact repeats. Identical values can stand only once. Like-named read-outs stand apart in the source and are kept apart here.

Test: Pharmacokinetics after subcutaneous (SC) administration of angiotensin (1-7) in PBS, plasma LC-MS
Type: in vivo, female Sprague-Dawley rats
Details: for AUC(0-t): read-out: AUC0-90 (converted)
Experimental: Initially, a baseline pharmacokinetic profile in female Sprague-Dawley rats was obtained by subcutaneous (SC) administration of angiotensin (1-7) in phosphate buffered saline (PBS). […]
After extraction, the samples were then transferred to ice-cold tubes containing a protease inhibitor cocktail. The samples were kept on ice until they were centrifuged at 4° C. to obtain plasma. The plasma supernatants were then frozen −70° C. until analysis using an LC-MS assay.
Table 1 summarized exemplary individual baseline A(1-7) levels achieved at the designated time points and the non-compartmental PK values. Three rats were administered 0.3 mL of 10 mg/mL A(1-7) as a subcutaneous injection. The pharmacokinetics of A(1-7) were determined using a non-compartmental model, where individual pharmacokinetics were determined. The mean concentration for each time point was calculated and the PK values for these mean values were estimated. The Tmax was achieved approximately 10 to 90 minutes after administration. Half-lives are approximately 15 minutes for this treatment group. Total mean A(1-7) exposure over the observation period was 614 ng*min/mL with a range of 585 to 656 ng*min/mL.

[1] = SC 0.3 mL of 10 mg/mL A(1-7) in PBS, individual rats

Total mean A(1-7) exposure over the observation period (0.3 mL of 10 mg/mL A(1-7) subcutaneous injection, three rats): 614 ng·min/mL
AUC0-90 [1]: 598.1 ng·min/mL and 656.1 ng·min/mL
Cmax [1]: 15.7 ng/mL and 17.4 ng/mL
Half-Life [1]: 15.58 min
Angiotensin (1-7) concentration (SC 0.3 mL of 10 mg/mL A(1-7) in PBS, time point 10 min, individual rats): 18.6 ng/mL and 0.94 ng/mL and 1.09 ng/mL
Angiotensin (1-7) concentration (SC 0.3 mL of 10 mg/mL A(1-7) in PBS, time point 20 min, individual rats): 6.25 ng/mL and 15.7 ng/mL and 5.71 ng/mL
Angiotensin (1-7) concentration (SC 0.3 mL of 10 mg/mL A(1-7) in PBS, time point 60 min, individual rats): 1.03 ng/mL and 2.65 ng/mL and 7.46 ng/mL
Angiotensin (1-7) concentration (SC 0.3 mL of 10 mg/mL A(1-7) in PBS, time point 90 min, individual rats): 1.14 ng/mL and 6.59 ng/mL and 17.4 ng/mL
level at 0 h (female, Sprague-Dawley, rat, plasma, 3 mg, SC 0.3 mL of 10 mg/mL A(1-7) in PBS, time point 0 min (before injection), Average, read-out: Angiotensin (1-7) concentration): 4.5 ng/mL
level at 5 min (female, Sprague-Dawley, rat, plasma, 3 mg, SC 0.3 mL of 10 mg/mL A(1-7) in PBS, time point 5 min, Average, read-out: Angiotensin (1-7) concentration): 3.99 ng/mL
level at 10 min (female, Sprague-Dawley, rat, plasma, 3 mg, SC 0.3 mL of 10 mg/mL A(1-7) in PBS, time point 10 min, Average, read-out: Angiotensin (1-7) concentration): 6.88 ng/mL
level at 20 min (female, Sprague-Dawley, rat, plasma, 3 mg, SC 0.3 mL of 10 mg/mL A(1-7) in PBS, time point 20 min, Average, read-out: Angiotensin (1-7) concentration): 9.22 ng/mL
level at 40 min (female, Sprague-Dawley, rat, plasma, 3 mg, SC 0.3 mL of 10 mg/mL A(1-7) in PBS, time point 40 min, Average, read-out: Angiotensin (1-7) concentration): 8.72 ng/mL
level at 1 h (female, Sprague-Dawley, rat, plasma, 3 mg, SC 0.3 mL of 10 mg/mL A(1-7) in PBS, time point 60 min, Average, read-out: Angiotensin (1-7) concentration): 3.71 ng/mL
level at 1.5 h (female, Sprague-Dawley, rat, plasma, 3 mg, SC 0.3 mL of 10 mg/mL A(1-7) in PBS, time point 90 min, Average, read-out: Angiotensin (1-7) concentration): 8.38 ng/mL
Tmax (female, Sprague-Dawley, rat, plasma, sc, 3 mg, 0.3 mL of 10 mg/mL A(1-7) subcutaneous injection, three rats, range over the group, read-out: Tmax after administration): 10 to 90 min
Half-Life (female, Sprague-Dawley, rat, plasma, sc, 3 mg, 0.3 mL of 10 mg/mL A(1-7) subcutaneous injection, three rats, read-out: Half-lives): ~15 min
AUC(0-t) (female, Sprague-Dawley, rat, plasma, sc, 3 mg, SC 0.3 mL of 10 mg/mL A(1-7) in PBS, Average (PK value of the mean concentrations)): 10.2 ng·h/mL
Cmax (female, Sprague-Dawley, rat, plasma, sc, 3 mg, SC 0.3 mL of 10 mg/mL A(1-7) in PBS, Average (PK value of the mean concentrations), read-out: Cmax): 9.2 ng/mL
Tmax (female, Sprague-Dawley, rat, plasma, sc, 3 mg, SC 0.3 mL of 10 mg/mL A(1-7) in PBS, Average (PK value of the mean concentrations), read-out: Tmax (converted)): 20 min
AUC(0-t) (female, Sprague-Dawley, rat, plasma, sc, 3 mg, SC 0.3 mL of 10 mg/mL A(1-7) in PBS, Mean PK Value (average of individual PK parameters)): 10.2 ng·h/mL
Cmax (female, Sprague-Dawley, rat, plasma, sc, 3 mg, SC 0.3 mL of 10 mg/mL A(1-7) in PBS, Mean PK Value (average of individual PK parameters), read-out: Cmax): 17.2 ng/mL
Half-Life (female, Sprague-Dawley, rat, plasma, sc, 3 mg, SC 0.3 mL of 10 mg/mL A(1-7) in PBS, Mean PK Value (average of individual PK parameters), read-out: Half-Life): 15.1 min
Tmax (female, Sprague-Dawley, rat, plasma, sc, 3 mg, SC 0.3 mL of 10 mg/mL A(1-7) in PBS, Mean PK Value (average of individual PK parameters), read-out: Tmax (converted)): 40 min
AUC(0-t) (female, Sprague-Dawley, rat, plasma, sc, 3 mg, SC 0.3 mL of 10 mg/mL A(1-7) in PBS, individual rats): 9.72 ng·h/mL
Cmax (female, Sprague-Dawley, rat, plasma, sc, 3 mg, SC 0.3 mL of 10 mg/mL A(1-7) in PBS, individual rats, read-out: Cmax): 18.6 ng/mL
Half-Life (female, Sprague-Dawley, rat, plasma, sc, 3 mg, SC 0.3 mL of 10 mg/mL A(1-7) in PBS, individual rats, read-out: Half-Life): 15 min
Compound: CC[C@H](C)[C@H](NC(=O)[C@H](Cc1ccc(O)cc1)NC(=O)[C@@H](NC(=O)[C@H](CCCNC(=N)N)NC(=O)[C@@H](N)CC(=O)O)C(C)C)C(=O)N[C@@H](Cc1c[nH]cn1)C(=O)N1CCC[C@H]1C(=O)O [Angiotensin (1-7), Asp^1-Arg^2-Val^3-Tyr^4-Ile^5-His^6-Pro^7]
Angiotensin (1-7) concentration (SC 0.3 mL of 10 mg/mL A(1-7) in PBS, time point 0 min (before injection), individual rats): 0.121 ng/mL and 10.2 ng/mL and 1.41 ng/mL
Angiotensin (1-7) concentration (SC 0.3 mL of 10 mg/mL A(1-7) in PBS, time point 5 min, individual rats): 0.120 ng/mL and 7.47 ng/mL and 4.37 ng/mL
Angiotensin (1-7) concentration (SC 0.3 mL of 10 mg/mL A(1-7) in PBS, time point 40 min, individual rats): 15.30 ng/mL and 6.38 ng/mL and 4.47 ng/mL
